Our source for the IC50 and EC50 values is PMC9557897 (ACS Omega, 2022).

For test [1], the system named is herpes simplex virus 1 (HSV-1). In words: Plaque reduction assay. Type of test: cell-based. To be noted: Human alphaherpesvirus 1.
For test [2], the system named is ADV7. To be noted: cited from earlier work.

Converted amounts (≈) assume the structure as drawn.

Usually IC50 stands for the concentration at which inhibition is half-maximal. Read a low IC50 as inhibition by little substance. In the case of `Nc1nc2c(ncn2COCCO)c(=O)[nH]1` [acyclovir], the IC50 in test [1] came out at 0.07 µg/mL (≈ 0.311 µM).
For orientation: EC50 means the concentration needed to bring the measured effect to its halfway point. For the compound `NC(=O)c1ncn([C@@H]2O[C@H](CO)[C@@H](O)[C@H]2O)n1` [ribavirin], in test [2], the EC50 is 27.8 µg/mL (≈ 114 µM).
